According to ChEMBL document CHEMBL1152307, “Antimycobacterial and H1-antihistaminic activity of 2-substituted piperidine derivatives” (Bioorg Med Chem, 2008):
In brackets after ≈: the same amount, converted by molar mass.

What was measured:
[1] = Cytotoxicity against HEK293 cells after 72 hrs by MTT assay; assay type: cell-based; details: human, read-out: LC50
[2] = system: Mycobacterium tuberculosis; experiment: Antimycobacterial activity against Mycobacterium tuberculosis H37Rv after 4 days by microplate alamar blue assay; assay type: functional; details: 96 h
[3] = system: Mycobacterium tuberculosis; experiment: Antimycobacterial activity against Mycobacterium tuberculosis H37Rv at 6.25 ug/ml after 4 days by microplate alamar blue assay; assay type: functional; details: 96 h
[4] = biological target: Histamine H1 receptor (Cavia porcellus) (UniProt P31389); experiment: Antagonist activity at guinea pig ileum histamine H1 receptor at 0.3 x 10'4 M; assay type: functional, tissue-based
Chain of Histamine H1 receptor (Cavia porcellus) (P31389 whole entry): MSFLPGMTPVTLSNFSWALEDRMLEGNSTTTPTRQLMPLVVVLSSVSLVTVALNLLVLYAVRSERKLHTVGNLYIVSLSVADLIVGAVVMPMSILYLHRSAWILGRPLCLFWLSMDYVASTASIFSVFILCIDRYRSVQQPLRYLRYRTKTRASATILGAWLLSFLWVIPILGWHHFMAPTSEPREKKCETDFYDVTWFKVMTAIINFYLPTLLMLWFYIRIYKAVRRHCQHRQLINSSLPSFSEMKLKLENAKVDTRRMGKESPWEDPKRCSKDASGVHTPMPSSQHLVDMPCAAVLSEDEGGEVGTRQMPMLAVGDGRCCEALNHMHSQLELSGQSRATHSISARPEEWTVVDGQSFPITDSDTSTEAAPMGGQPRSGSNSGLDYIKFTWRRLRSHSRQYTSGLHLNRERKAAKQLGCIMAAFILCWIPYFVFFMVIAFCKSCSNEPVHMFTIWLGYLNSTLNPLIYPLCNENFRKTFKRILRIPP

Row | Structure (SMILES) | CC50 at 72 h [1] | MIC [2] | inhibition at 6.25 µg/mL [3] | pKb [4]
1 | CN1CC[C@H](N(Cc2ccccc2)c2ccccc2)CC1(C)C | 69.5 µg/mL (≈ 225 µM) | > 6.25 µg/mL | 31% | 
2 | COc1ccc(N(Cc2ccccc2)[C@H]2CCN(C)C(C)(C)C2)cc1 | 82 µg/mL (≈ 242 µM) | > 6.25 µg/mL | 26% | 
3 | CC1(C)C[C@@H](N(Cc2ccccc2)c2ccccc2)CCN1c1ccccc1 | 108 µg/mL (≈ 291 µM) | 6.25 µg/mL (≈ 16.9 µM) | 91% | 5
4 | CN1CC[C@H](OC(c2ccccc2)c2ccccc2)CC1(C)C |  |  |  | 8.19
5 | c1ccc(CN(c2ccccc2)[C@H]2CCN(c3ccccc3)[C@@H](c3ccccc3)C2)cc1 (relative stereo) | > 28 µg/mL | > 6.25 µg/mL | 37% | 
6 | CC(C)[C@H]1C[C@@H](N(Cc2ccccc2)c2ccccc2)CCN1C (relative stereo) | 35.9 µg/mL (≈ 111 µM) | > 6.25 µg/mL | 66% | 
7 | CC(C)[C@H]1C[C@@H](N(Cc2ccccc2)c2ccccc2)CCN1c1ccccc1 (relative stereo) | 127 µg/mL (≈ 330 µM) | > 6.25 µg/mL | 7% | 
8 | c1ccc(CN(c2ccccc2)[C@H]2CCN(c3ccccc3)[C@H](c3ccccc3)C2)cc1 (relative stereo) | > 28 µg/mL | > 6.25 µg/mL | 22% | 
9 | CC(C)[C@@H]1C[C@@H](N(Cc2ccccc2)c2ccccc2)CCN1c1ccccc1 (relative stereo) | > 28 µg/mL | > 6.25 µg/mL | 52% | 
10 | CN1CCC(N(Cc2ccccc2)c2ccccc2)CC1 [BAMIPINE] | 64.1 µg/mL (≈ 229 µM) | > 6.25 µg/mL | 29% | 
11 | NNC(=O)c1ccncc1 [ISONIAZID] | > 200 µg/mL | 0.025 µg/mL (≈ 0.182 µM) |  | 
12 | CO[C@H]1/C=C/O[C@@]2(C)Oc3c(C)c(O)c4c(O)c(c(/C=N/N5CCN(C)CC5)c(O)c4c3C2=O)NC(=O)/C(C)=C\C=C\[C@H](C)[C@H](O)[C@@H](C)[C@@H](O)[C@@H](C)[C@H](OC(C)=O)[C@@H]1C [RIFAMPIN] | > 200 µg/mL | 0.06 µg/mL (≈ 0.0729 µM) |  | 
